From ChEMBL document CHEMBL1909605, “Cytotoxic and antivascular 1-methyl-4-(3-fluoro-4-methoxyphenyl)-5-(halophenyl)-imidazoles” (Bioorg Med Chem Lett, 2011)
Converted amounts (≈) assume the structure as drawn. The source made the active and inactive calls. No cut-off for these calls is given here.

Legend:
L929 = experiment: Growth inhibition of mouse L929 cells after 5 days by MTT assay; assay type: cell-based; settings: L929, 120 h
[1] = Growth inhibition of human KB-3-1 cells after 5 days by MTT assay; assay type: functional, cell-based; settings: KB 3-1, 120 h
[2] = Growth inhibition of rat kangaroo PtK2 cells after 5 days by MTT assay; assay type: cell-based; settings: Potorous tridactylus, PtK2, 120 h
NHDF = experiment: Growth inhibition of human NHDF cells after 5 days by MTT assay; assay type: cell-based; settings: 120 h
PtK2 = experiment: Disruption of microtubule network in potoroo PtK2 cells at 10 ug/mL after 16 hrs by immunofluorescence staining method; assay type: cell-based; settings: Potorous tridactylus
PC-3 = experiment: Growth inhibition of human PC3 cells after 5 days by MTT assay; assay type: functional, cell-based; settings: PC-3, 120 h
HUVEC = experiment: Antiangiogenic activity against human HUVEC cells assessed as suppression of tube formation after 20 hrs incubation by calcein staining-based fluorescent microscopy; assay type: functional, cell-based
Tubulin (Sus scrofa) = Tubulin (Sus scrofa) (UniProt P02554+P02550); experiment: Inhibition of pig porcine tubulin polymerization at 25 ug/mL by turbidimetric method; assay type: protein assay; settings: at 25 µg/mL
Sequence of Tubulin (Sus scrofa) (P02550 whole entry, looked up): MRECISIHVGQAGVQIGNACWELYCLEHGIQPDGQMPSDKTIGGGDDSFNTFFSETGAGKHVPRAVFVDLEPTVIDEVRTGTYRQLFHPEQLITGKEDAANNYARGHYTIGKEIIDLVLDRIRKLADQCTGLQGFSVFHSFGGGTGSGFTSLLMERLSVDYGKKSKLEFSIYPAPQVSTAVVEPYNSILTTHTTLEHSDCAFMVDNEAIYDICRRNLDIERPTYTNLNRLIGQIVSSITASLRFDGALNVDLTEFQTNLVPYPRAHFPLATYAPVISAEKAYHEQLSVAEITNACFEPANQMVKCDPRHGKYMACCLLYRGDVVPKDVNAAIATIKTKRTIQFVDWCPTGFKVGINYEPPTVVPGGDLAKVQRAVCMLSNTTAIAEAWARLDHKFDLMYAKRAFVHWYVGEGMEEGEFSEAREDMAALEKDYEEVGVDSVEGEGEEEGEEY
Sequence of Tubulin (Sus scrofa) (P02554 whole entry, looked up): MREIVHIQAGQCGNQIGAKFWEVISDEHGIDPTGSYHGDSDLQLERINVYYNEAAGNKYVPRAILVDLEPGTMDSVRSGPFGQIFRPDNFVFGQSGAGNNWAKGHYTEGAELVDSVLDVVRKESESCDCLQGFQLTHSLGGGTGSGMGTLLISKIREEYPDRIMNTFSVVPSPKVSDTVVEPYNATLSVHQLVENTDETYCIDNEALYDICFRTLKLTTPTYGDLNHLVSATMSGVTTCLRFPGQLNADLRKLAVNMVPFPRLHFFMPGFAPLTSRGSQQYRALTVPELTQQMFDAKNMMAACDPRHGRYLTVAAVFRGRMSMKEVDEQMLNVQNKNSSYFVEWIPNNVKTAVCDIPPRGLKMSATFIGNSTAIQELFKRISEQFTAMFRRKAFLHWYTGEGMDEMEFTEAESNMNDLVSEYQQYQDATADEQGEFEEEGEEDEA

IC50 (PC-3) [nM]	inhibition (Tubulin (Sus scrofa))	SMILES	IC50 (L929) [nM]	IC50 [1] [nM]	IC50 [2] [nM]	IC50 (NHDF) [nM]	Activity (PtK2)	MIC (HUVEC) [µM]
–	–	COc1ccc(-c2ncn(C)c2-c2cc(Cl)c(OC)c(Cl)c2)cc1F	2400	1150	4300	7180	Active	–
3	Active	COc1ccc(-c2ncn(C)c2-c2cc(I)c(OC)c(I)c2)cc1F	18	3	330	3300	Active	0.08 (≈ 0.0451 µg/mL)
70	Active	COc1ccc(-c2ncn(C)c2-c2cc(Br)c(OC)c(OC)c2)cc1F	25	5	440	175	Active	0.11 (≈ 0.0463 µg/mL)
90	Active	COc1ccc(-c2c(-c3cc(OC)c(OC)c(OC)c3)ncn2C)cc1N	220	70	450	140	Active	0.29 (≈ 0.107 µg/mL)
–	–	COc1ccc(-c2ncn(C)c2-c2cc(I)c(OC)c(OC)c2)cc1F	40	90	180	40	Active	–
16000	inactive	COc1ccc(-c2ncn(C)c2-c2cc(F)c(OC)c(F)c2)cc1F	31000	21000	23000	52000	inactive	27 (≈ 9.4 µg/mL)
–	–	COc1ccc(-c2c(-c3cc(Cl)c(OC)c(OC)c3)ncn2C)cc1N	135	16	70	970	Active	0.07 (≈ 0.0262 µg/mL)
10	Active	COc1ccc(-c2ncn(C)c2-c2cc(Br)c(OC)c(Br)c2)cc1F	4400	14	1200	400	Active	0.27 (≈ 0.127 µg/mL)
–	–	COc1ccc(-c2ncn(C)c2-c2cc(Cl)c(OC)c(OC)c2)cc1F	220	190	480	240	Active	–
1800	–	COc1ccc(-c2ncn(C)c2-c2cc(F)c(OC)c(OC)c2)cc1F	10000	2000	5000	7600	Active	10 (≈ 3.6 µg/mL)
